Test results reported in US20200377510A1, “DERIVATIVES OF PIPERLONGUMINE AND USES THEREOF” (Auransa Inc., priority 2019, published 2020).
Where two headings read alike, the source gives them in different places. Each block holds one compound with its values, some of them ahead of it.

Key:
[1] = In vivo pharmacokinetic analysis (plasma); details: female, Balb/C, mouse, mice, read-out: Plasma half-life t1/2 (converted)
Method: Age 8 to 9 weeks Balb/C female mice were used for this study. The mice were maintained in a special pathogen-free environment and in disposable cages. Animal room was set to maintain temperature and relative humidity at 23° C.±3° C. and 55%±15%, respectively. Housing room was on a 12:12 light/dark cycle. Water was supplied ad libitum to each cage via water bottles. All mice were fed rodent diet with 18% protein. All animals were weighed before commencement of the study.
Compound 1 was stored at 4° C. protected from light. Dosing solutions were used within 2 hours of preparation. Compound 1 was formulated within 2 hours prior to dosing by adding the pre-calculated volume of PEG 400 (40% of total solution volume). Formulated compound 1 was vortexed and sonicated until a clear solution was formed. To this clear formulation, saline (60% of total solution volume) was added and vortexed until a clear solution was formed. The Compound 1 solution was filtered using a sterile syringe filter (0.2 μm coming filter). All Compound 1 solutions were mixed thoroughly prior to pulling up into syringes and prior to dosing. 12 mice were dosed intravenously at 5 mg/kg. 12 mice were dosed intraperitoneally at 10 mg/kg. 12 mice were dosed orally at 10 mg/kg. Animals were sacrificed for blood and organs sampling. Under isoflurane anesthesia, blood was collected via retro-orbital route. Blood samples were then centrifuged for 5 minutes at a minimum of 2,000×g. Plasma supernatant (a minimum of 50 μL or as much as feasible to collect) was collected. Plasma was stored at −80° C.
Bioanalytical analysis of plasma levels of Compound 1 was performed by mass spectrometry. Calibration standards were prepared by spiking the test compound into blank plasma. Calibrator concentrations were 5,000, 2,000, 1,000, 200, 100, 20, 10, 2 and 1 ng/mL. Calibration standard samples were processed along with the test samples.
Twenty μL aliquots of plasma test samples were treated with 100 μL of methanol: acetonitrile (5:95 v:v) containing internal standard (12.5 ng/mL verapamil). The mixtures were vortexed on a shaker for 15 minutes and subsequently centrifuged at 4,000 rpm for 15 minutes. An aliquot of 50 μL of the supernatant was mixed with 100 μL of water with 0.1% formic acid for injection to the LC/MS/MS (liquid chromatography/tandem-mass spectrometry).
The concentration of Compound 1 was determined by a UPLC-TIS-MS-MS method (ultra performance liquid chromatography—turbo ion spray—tandem mass spectrometry). The UPLC comprised a Shimadzu LC-30AD HPLC (high performance liquid chromatography). Chromatographic separation was achieved using a Waters UPLC column (Acquity UPLC BEH C18, 50×2.1 mm, 1.7 μM). Mobile phase A was water with 0.1% formic acid; mobile phase B was acetonitrile with 0.1% formic acid. The gradient program was as follows: 20% B (0-0.2 min), 20-95% B (0.2-1.2 min), 95% B (1.2-1.8 min), 95-20% B (1.81-2.2 min). The flow rate was 0.6 mL/minute. The column was maintained at 50° C.
Mass spectrometric analysis was performed using an AB Sciex API5000 with Turbo Ion Spray interface operating in a positive ionization mode. Quantification was performed using multiple reaction monitoring (MRM) method with the transitions of (m/z) 316.104→(m/z) 219.014 for Compound 1 and (m/z) 455.346→(m/z) 165 for verapamil (internal standard). Pharmacokinetics of Compound 1 ((E)-1-(3-(8-methoxy-2,3-dihydrobenzo[b][1,4]dioxin-6-yl)acryloyl)-5,6-dihydropyridin-2(1H)-one) in the plasma of the mice dosed intravenously (IV; 5 mg/kg), intraperitoneally (IP; 10 mg/kg) and orally (PO; 10 mg/kg) (n=3 per time point) is illustrated in FIG. 1.

[2] = system: multiple myeloma (MOLP-8) cells; experiment: In vitro cell viability assay (CellTiter-Glo, ATP levels); format: cell-based; details: Homo sapiens, MOLP-8, 168 h, 7-day incubation, average IC50
Method: (§1) The present disclosure provides a method for inhibiting cell viability, as measured by ATP levels. The method for inhibiting cell viability is drawn to contacting various cancer cells with the compounds described herein at various concentrations. The cancer cell lines were maintained in culture conditions at 37° C. in an atmosphere of 5% CO2 in air. The cells growing in an exponential growth phase were harvested and counted for plating. Compounds were incubated in two cancer cell types representing multiple myeloma (MOLP-8) and triple negative breast cancer (DU4475). Cells were plated at an optimized cell numbers per well in 96-well plates and allowed to attach to the plates overnight at approximately 80% confluency.
(§2) After addition of compounds, plates were incubated for 7-day. At the end of incubation period on day 8, media was removed and replaced with a solution of CellTiter-Glo™ reagent (Promega®) according to protocol. Luminescence was read using an EnVision® multi-label plate reader (Perkin-Elmer®), and signal intensity was calculated relative to positive and negative control wells. Cisplatin was included as the positive control. A dose-response calculation was performed in a non-linear regression fit and by using the Hill equation to calculate a concentration-response curve and 50% inhibitory concentration (IC50) values for each compound. […]

[3] = system: triple negative breast cancer (DU4475) cells; experiment: as above; format: cell-based; details: Homo sapiens, DU-4475, 168 h, 7-day incubation, average IC50
Method: as §1, §2

[4] = system: collagen-induced arthritis; experiment: Collagen-induced arthritis in female Lewis rats; format: in vivo; details: 3 mg/kg QD PO, vs vehicle control rats

half-life ([1]; plasma, IP, 10 mg/kg): 1.14 h
half-life ([1]; plasma, IV, 5 mg/kg): 1.66 h
half-life ([1]; plasma, PO, 10 mg/kg): 2.16 h
Structure (SMILES): COc1cc(/C=C/C(=O)N2CCC=CC2=O)cc2c1OCCO2 [Compound 1, (E)-1-(3-(8-methoxy-2,3-dihydrobenzo[b][1,4]dioxin-6-yl)acryloyl)-5,6-dihydropyridin-2(1H)-one]

IC50 [2]: 6.11 µM
IC50 [3]: 5.06 µM
Structure (SMILES): C/C(=C/c1ncccn1)C(=O)N1CCC=CC1=O [Compound 49]

Structure (SMILES): CCS(=O)(=O)N1CC(CC#N)(n2cc(-c3ncnc4[nH]ccc34)cn2)C1 [baricitinib]
reduction of ankle diameter measurements AUC [4]: 72%
reduction of final hind-paw weights [4]: 71%

Structure (SMILES): COc1cc(/C=C/C(=O)N2CCC=CC2=O)cc(OC)c1OC [piperlongumine, 1-[(E)-3-(3,4,5-trimethoxyphenyl)prop-2-enoyl]-2,3-dihydropyridin-6-one]
half-life ([1]; in vivo, IP, 10 mg/kg): 1.07 h
half-life ([1]; in vivo, IV, 5 mg/kg): 1.26 h
half-life ([1]; in vivo, PO, 10 mg/kg): 1.31 h
